Common to all, as to assay: minimum inhibitory concentration, agar dilution assay
Holding throughout (type): cell-based
(In agar dilution the substance is mixed into plates at graded concentrations.)

One assay concerns Alcaligenes faecalis A 1. To be noted: read-out: minimum inhibitory concentration. Here is the method:
(§1) The antibiotic activities shown in Tables I-1 to I-8 above were determined in the following manner.
(§2) The minimum inhibitory concentrations of the compounds of formula (I-a-1) or (I-b-1) in Tables I-1 to I-7 and the known compounds in Table I-8 on the various microorganisms shown in the above tables were measured by an agar dilution assay method using a brain heart infusion agar medium "Difco" (a product of Difco Laboratories Inc.)
(§3) A sample of the test compound was dissolved in sterile distilled water and diluted to prepare a two-fold dilution series of the compound solution. In a petri plate of 9 cm diameter, 1 ml of the compound solution was added to 9 ml of molten sterile heart infusion agar medium (Difco Laboratories Inc.) at about 60° C. to prepare the compound-containing agar plate. An overnight culture of each test organism indicated in the above table which was prepared by stationary cultivation in Trypto-Soy broth (Eiken Chemi. Co., Ltd.) at 35° C. for 18 to 20 hours, was diluted with the Trypto-Soy broth to give approximately 10^8 cells/ml and the diluted inoculum was inoculated onto the compound-containing agar plates. After cultivating the plates at 35° C. for 20 hours, the growth of the organism was observed. The minimum concentration of the compound at which no growth of the microorganism was noted was determined, and defined as the minimum inhibitory concentration of the test compound.

Assay [1] relates to Bacillus subtilis ATCC 6633. The settings on record: read-out: minimum inhibitory concentration. Here is the method: as §1, §2, §3
Assay [2] has as its system Citrobacter freundii GN 346. To be noted: read-out: minimum inhibitory concentration. The method, then:
as §1, §2, §3

The test system of assay [3] is Comamonas terrigena B-996. To be noted: read-out: minimum inhibitory concentration. Here is the method: as §1, §2, §3
The test system of assay [4] is Enterobacter aerogenes E19. To be noted: Klebsiella aerogenes, read-out: minimum inhibitory concentration. Here is the method:
as §1, §2, §3

A further assay relates to Enterobacter cloacae 45. The settings on record: read-out: minimum inhibitory concentration. The method, then: as §1, §2, §3
The subject of another assay is Enterobacter sp. E8. The settings on record: read-out: minimum inhibitory concentration. The method, then: as §1, §2, §3
In the next assay the test system is Escherichia coli K-12. The settings on record: read-out: minimum inhibitory concentration. The method, then:
as §1, §2, §3

In the next assay the test system is Escherichia coli RGN 823. To be noted: read-out: minimum inhibitory concentration. Here is the method:
as §1, §2, §3

In assay [5] the test system is Klebsiella pneumoniae K-13. The settings on record: read-out: minimum inhibitory concentration. Here is the method:
as §1, §2, §3

The next assay concerns Proteus mirabilis P6. To be noted: read-out: minimum inhibitory concentration. Here is the method: as §1, §2, §3
The subject of a further assay is Proteus rettgeri P7. The settings on record: Providencia rettgeri, read-out: minimum inhibitory concentration. The method, then: as §1, §2, §3
A further assay has as its system Proteus sp. P22. To be noted: read-out: minimum inhibitory concentration. Here is the method:
as §1, §2, §3

In the next assay the test system is Proteus vulgaris GN76. The settings on record: read-out: minimum inhibitory concentration. Here is the method: as §1, §2, §3
The next assay relates to Providencia sp. P8. To be noted: read-out: minimum inhibitory concentration. The method, then: as §1, §2, §3
Assay [6] relates to Pseudomonas aeruginosa IFO3445. To be noted: read-out: minimum inhibitory concentration. The method, then: as §1, §2, §3
For assay [7], the system named is Pseudomonas aeruginosa NCTC10490. The settings on record: read-out: minimum inhibitory concentration. The method, then: as §1, §2, §3
In another assay the test system is Sarcina lutea. The settings on record: Micrococcus luteus, read-out: minimum inhibitory concentration. The method, then:
as §1, §2, §3

Another assay concerns Serratia marcescens S18. To be noted: read-out: minimum inhibitory concentration. The method, then:
as §1, §2, §3

For a further assay, the system named is Serratia marcescens T55. To be noted: read-out: minimum inhibitory concentration. Here is the method: as §1, §2, §3
In assay [8] the test system is Staphylococcus aureus FDA 209P. To be noted: FDA209P, read-out: minimum inhibitory concentration. Here is the method: as §1, §2, §3
In assay [9] the test system is Staphylococcus aureus Russell. To be noted: read-out: minimum inhibitory concentration. Here is the method:
as §1, §2, §3

The test system of assay [10] is Staphylococcus aureus Smith. To be noted: read-out: minimum inhibitory concentration. Here is the method:
as §1, §2, §3

The subject of assay [11] is Staphylococcus epidermidis. To be noted: read-out: minimum inhibitory concentration. Here is the method: as §1, §2, §3
[12] abbreviates: P7, agar dilution, 35° C., 20 hours.
Setting [13] is: agar dilution, 35° C., 20 hours.
Where [14] appears, read: GN76, agar dilution, 35° C., 20 hours.
The mark [15] stands for this setting: SP.P8, agar dilution, 35° C., 20 hours.
Setting [16] is: IFO3445, agar dilution, 35° C., 20 hours.
[17] abbreviates: NCTC10490, agar dilution, 35° C., 20 hours.
Where [18] appears, read: S18, agar dilution, 35° C., 20 hours.
The mark [19] stands for this setting: T55, agar dilution, 35° C., 20 hours.

Each structure is given as a SMILES string. In brackets after ≈: the same amount, converted by molar mass. Read-outs that look alike come from different tables or passages of the source. Some results are limits rather than exact numbers.

As for `CCC1C(=O)N2C(C(=O)[O-])=C(Sc3ccccc3)CC12.[Na+]` (centres unmarked), the MIC in the assay on Alcaligenes faecalis A 1 (A1, 20 h) is 4.7 µg/mL; in assay [1] (ATCC6633, 20 h), 0.07 µg/mL; in [2] (GN346, 20 h), 150 µg/mL; in assay [3] (B996, 20 h), under 0.01 µg/mL; in [4] (E19, 20 h) it was 150 µg/mL; in the assay on Enterobacter cloacae 45 (Enterobacter cloacae, 45, 20 h), 150 µg/mL. Besides, the MIC with Enterobacter sp. E8 (SP.E8, 20 h) is 75 µg/mL; in the assay with Escherichia coli K-12 (K12, 20 h), 37.5 µg/mL; in the assay on Escherichia coli RGN 823 (RGN823, 20 h) it was 37.5 µg/mL; in assay [5] (K13, 20 h), over 150 µg/mL; in the assay on Proteus mirabilis P6 (P6, 20 h), 75 µg/mL; with Proteus rettgeri P7 (P7, 20 h) it was 75 µg/mL. Moreover, the MIC was 75 µg/mL with Proteus sp. P22 (20 h); 150 µg/mL in the assay with Proteus vulgaris GN76 (GN76, 20 h); 18.8 µg/mL in the assay with Providencia sp. P8 (SP.P8, 20 h); 18.8 µg/mL in [6] (IFO3445, 20 h); 4.7 µg/mL in assay [7] (NCTC10490, 20 h); under 0.01 µg/mL in the assay with Sarcina lutea (20 h). Also, the MIC in the assay with Serratia marcescens S18 (S18, 20 h) is 75 µg/mL; in the assay on Serratia marcescens T55 (T55, 20 h), 150 µg/mL; in assay [8] (20 h) it was under 0.01 µg/mL; in assay [9] (20 h), under 0.01 µg/mL; in assay [10] (20 h), 0.1 µg/mL; in assay [11] (20 h), under 0.01 µg/mL.

For `CC(C)C1C(=O)N2C(C(=O)O)=C(Sc3ccccn3)CC12` (centres unmarked), the MIC was determined as 6.25 µg/mL (≈ 20.5 µM) in the assay on Proteus rettgeri P7 (setting [12]); 12.5 µg/mL (≈ 41.1 µM) in the assay with Proteus sp. P22 (setting [13]); 12.5 µg/mL (≈ 41.1 µM) in the assay with Proteus vulgaris GN76 (setting [14]); 3.13 µg/mL (≈ 10.3 µM) in the assay on Providencia sp. P8 (setting [15]); 50 µg/mL (≈ 164 µM) in assay [6] (setting [16]); 50 µg/mL (≈ 164 µM) in assay [7] (setting [17]). Also, the MIC with Serratia marcescens S18 (setting [18]) and in the assay with Serratia marcescens T55 (setting [19]) was 50 µg/mL (≈ 164 µM) in each case.

Regarding `CC(O)[C@H]1C(=O)N2C(C(=O)O)=C(Sc3ccccn3)C[C@H]12` (some centres unmarked), the MIC with Alcaligenes faecalis A 1 (A1, agar dilution, 35° C., 20 hours) was 0.78 µg/mL (≈ 2.55 µM); in assay [1] (ATCC6633, agar dilution, 35° C., 20 hours), 0.78 µg/mL (≈ 2.55 µM); in [2] (GN346, agar dilution, 35° C., 20 hours) it was 100 µg/mL (≈ 326 µM); in [3] (B996, agar dilution, 35° C., 20 hours) it was 0.2 µg/mL (≈ 0.653 µM); in assay [4] (E19, agar dilution, 35° C., 20 hours) it was over 100 µg/mL; in the assay with Enterobacter cloacae 45 (Enterobacter cloacae, 45, agar dilution, 35° C., 20 hours), 100 µg/mL (≈ 326 µM). Further, the MIC was 25 µg/mL (≈ 81.6 µM) in the assay with Enterobacter sp. E8 (SP.E8, agar dilution, 35° C., 20 hours); 6.25 µg/mL (≈ 20.4 µM) in the assay on Escherichia coli K-12 (K12, agar dilution, 35° C., 20 hours); 12.5 µg/mL (≈ 40.8 µM) in the assay with Escherichia coli RGN 823 (RGN823, agar dilution, 35° C., 20 hours); 50 µg/mL (≈ 163 µM) in [5] (K13, agar dilution, 35° C., 20 hours); 12.5 µg/mL (≈ 40.8 µM) in the assay on Proteus mirabilis P6 (P6, agar dilution, 35° C., 20 hours); 25 µg/mL (≈ 81.6 µM) with Proteus rettgeri P7 (setting [12]). In addition, the MIC in the assay on Proteus sp. P22 (setting [13]) was determined as 12.5 µg/mL (≈ 40.8 µM); in the assay with Proteus vulgaris GN76 (setting [14]), 25 µg/mL (≈ 81.6 µM); with Providencia sp. P8 (setting [15]), 3.13 µg/mL (≈ 10.2 µM); in assay [6] (setting [16]), 12.5 µg/mL (≈ 40.8 µM); in assay [7] (setting [17]) it was 25 µg/mL (≈ 81.6 µM); with Sarcina lutea (setting [13]), 0.013 µg/mL (≈ 0.0424 µM). For the same compound, the MIC with Serratia marcescens S18 (setting [18]) stood at 50 µg/mL (≈ 163 µM); in the assay with Serratia marcescens T55 (setting [19]), 100 µg/mL (≈ 326 µM); in [8] (setting [13]), 0.05 µg/mL (≈ 0.163 µM); in assay [9] (setting [13]), 0.39 µg/mL (≈ 1.27 µM); in assay [10] (setting [13]) it was 0.39 µg/mL (≈ 1.27 µM); in [11] (setting [13]), 1.56 µg/mL (≈ 5.09 µM).

Source of the values: patent US4337199A, “Antibiotic β-lactam compounds, production thereof, and their use as antimicrobial agent” (Sanraku-Ocean Co., Ltd., priority 1978, dated 1982).
